What all share (type): biochemical
The target in one assay is T1, Src (Homo sapiens, UniProt P12931).
T1 construct: purchased Life Technologies
The experiment in a line: Src kinase assay, IMAP fluorescence polarization. Particulars: 50 or 100 μM ATP, average. The procedure, abridged: (§1)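 Kinases (0.6–13 nM) incubated 60 min at room temperature with 100 nM FAM-Abltide, FAM-Srctide or FAM-HDAC peptide and 50 or 100 μM ATP in 20 mM Tris pH 7.2, 4 mM MgCl2, 0.2% BSA, 2 mM DTT. IMAP binding reagent (85:15 buffer A:B; 30:70 for Src) stopped reactions; fluorescence polarization read; compounds tested 0.00005–1 μM.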

The next assay concerns the target T2, SIK2 (Homo sapiens, UniProt Q9H0K1).
T2 construct: purchased Life Technologies
Kind of assay: SIK2 kinase assay, IMAP fluorescence polarization. Particulars: 50 or 100 μM ATP, average. The essentials:
as §1
In general terms: In fluorescence polarisation assays a small probe gives low polarisation when free and higher when bound to something large.

The target in another assay is T3, SIK3 (Homo sapiens, UniProt Q9Y2K2).
T3 construct: purchased Life Technologies
Kind of assay: SIK3 kinase assay, IMAP fluorescence polarization. Particulars: 50 or 100 μM ATP, average. The essentials:
as §1

A further assay concerns the target T4, Abl (Homo sapiens, UniProt P00519).
T4 construct: purchased Life Technologies
The experiment in a line: Abl kinase assay, IMAP fluorescence polarization. Particulars: 50 or 100 μM ATP, average. The essentials: as §1

The next assay concerns the target T5, EPHA2 (Homo sapiens, UniProt P29317).
T5 construct: purchased Life Technologies
The experiment in a line: EPHA2 kinase assay, IMAP fluorescence polarization. Particulars: 50 or 100 μM ATP, Tris pH 8.5, average.

In the next assay the target is T6, SIK1 (Homo sapiens, UniProt P57059).
T6 construct: purchased Life Technologies
The experiment in a line: SIK1 kinase assay, IMAP fluorescence polarization. Particulars: 50 or 100 μM ATP, average. The procedure, abridged: as §1

SMILES strings stand for the structures.

T4 sequence (P00519 whole entry): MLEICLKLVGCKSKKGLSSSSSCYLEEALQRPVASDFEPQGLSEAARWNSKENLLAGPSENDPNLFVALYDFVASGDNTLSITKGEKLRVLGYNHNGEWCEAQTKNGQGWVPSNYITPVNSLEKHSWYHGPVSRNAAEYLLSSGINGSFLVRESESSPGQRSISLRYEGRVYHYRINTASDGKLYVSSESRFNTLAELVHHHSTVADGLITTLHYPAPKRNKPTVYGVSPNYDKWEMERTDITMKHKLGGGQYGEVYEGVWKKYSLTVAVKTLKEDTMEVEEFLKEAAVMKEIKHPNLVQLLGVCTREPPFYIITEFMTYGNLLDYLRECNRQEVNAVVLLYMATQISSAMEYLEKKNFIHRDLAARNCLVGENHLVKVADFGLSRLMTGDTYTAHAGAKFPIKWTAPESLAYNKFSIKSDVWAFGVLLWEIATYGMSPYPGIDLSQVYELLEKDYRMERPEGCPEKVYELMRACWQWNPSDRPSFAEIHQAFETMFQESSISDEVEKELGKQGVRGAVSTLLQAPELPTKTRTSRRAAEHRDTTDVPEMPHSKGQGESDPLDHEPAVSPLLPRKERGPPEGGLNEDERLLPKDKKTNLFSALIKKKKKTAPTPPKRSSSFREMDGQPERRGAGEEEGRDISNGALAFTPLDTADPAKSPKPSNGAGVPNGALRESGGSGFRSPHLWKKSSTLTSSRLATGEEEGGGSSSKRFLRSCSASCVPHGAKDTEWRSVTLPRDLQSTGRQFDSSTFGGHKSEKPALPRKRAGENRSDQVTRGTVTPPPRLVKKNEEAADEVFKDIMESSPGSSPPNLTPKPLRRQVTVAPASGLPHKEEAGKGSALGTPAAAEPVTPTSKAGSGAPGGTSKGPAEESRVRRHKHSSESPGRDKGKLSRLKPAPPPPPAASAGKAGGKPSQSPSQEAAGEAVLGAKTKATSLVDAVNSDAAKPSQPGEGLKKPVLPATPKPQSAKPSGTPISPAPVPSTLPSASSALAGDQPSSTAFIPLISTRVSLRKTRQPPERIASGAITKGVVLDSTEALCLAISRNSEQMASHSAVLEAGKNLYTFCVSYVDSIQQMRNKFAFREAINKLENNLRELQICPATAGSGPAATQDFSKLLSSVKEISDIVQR
T5 sequence (P29317 24-976): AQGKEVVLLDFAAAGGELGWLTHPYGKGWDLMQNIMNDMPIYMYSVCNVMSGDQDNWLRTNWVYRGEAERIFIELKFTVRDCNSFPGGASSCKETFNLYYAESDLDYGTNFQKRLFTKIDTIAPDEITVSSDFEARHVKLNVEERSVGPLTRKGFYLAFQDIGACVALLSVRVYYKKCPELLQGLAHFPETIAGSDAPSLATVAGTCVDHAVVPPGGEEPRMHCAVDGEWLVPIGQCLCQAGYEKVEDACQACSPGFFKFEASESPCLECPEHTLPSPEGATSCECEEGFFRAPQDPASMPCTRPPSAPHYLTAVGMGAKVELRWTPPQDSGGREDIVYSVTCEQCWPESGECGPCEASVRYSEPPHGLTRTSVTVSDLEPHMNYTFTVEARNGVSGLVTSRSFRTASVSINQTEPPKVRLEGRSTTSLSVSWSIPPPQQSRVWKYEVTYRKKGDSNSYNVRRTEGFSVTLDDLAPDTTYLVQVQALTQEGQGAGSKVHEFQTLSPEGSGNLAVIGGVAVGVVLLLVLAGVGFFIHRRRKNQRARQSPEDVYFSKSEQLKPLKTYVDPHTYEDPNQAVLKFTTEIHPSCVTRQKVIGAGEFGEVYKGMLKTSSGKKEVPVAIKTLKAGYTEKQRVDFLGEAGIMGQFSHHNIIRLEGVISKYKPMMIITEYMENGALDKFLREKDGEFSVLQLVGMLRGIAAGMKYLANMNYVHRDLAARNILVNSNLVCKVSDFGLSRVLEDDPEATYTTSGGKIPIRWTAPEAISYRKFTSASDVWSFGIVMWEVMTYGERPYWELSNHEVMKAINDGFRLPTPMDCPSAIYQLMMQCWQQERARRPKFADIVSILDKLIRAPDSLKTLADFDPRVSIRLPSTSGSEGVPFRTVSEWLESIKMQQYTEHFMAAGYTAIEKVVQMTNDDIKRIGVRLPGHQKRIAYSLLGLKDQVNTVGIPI
T6 sequence (P57059 whole entry): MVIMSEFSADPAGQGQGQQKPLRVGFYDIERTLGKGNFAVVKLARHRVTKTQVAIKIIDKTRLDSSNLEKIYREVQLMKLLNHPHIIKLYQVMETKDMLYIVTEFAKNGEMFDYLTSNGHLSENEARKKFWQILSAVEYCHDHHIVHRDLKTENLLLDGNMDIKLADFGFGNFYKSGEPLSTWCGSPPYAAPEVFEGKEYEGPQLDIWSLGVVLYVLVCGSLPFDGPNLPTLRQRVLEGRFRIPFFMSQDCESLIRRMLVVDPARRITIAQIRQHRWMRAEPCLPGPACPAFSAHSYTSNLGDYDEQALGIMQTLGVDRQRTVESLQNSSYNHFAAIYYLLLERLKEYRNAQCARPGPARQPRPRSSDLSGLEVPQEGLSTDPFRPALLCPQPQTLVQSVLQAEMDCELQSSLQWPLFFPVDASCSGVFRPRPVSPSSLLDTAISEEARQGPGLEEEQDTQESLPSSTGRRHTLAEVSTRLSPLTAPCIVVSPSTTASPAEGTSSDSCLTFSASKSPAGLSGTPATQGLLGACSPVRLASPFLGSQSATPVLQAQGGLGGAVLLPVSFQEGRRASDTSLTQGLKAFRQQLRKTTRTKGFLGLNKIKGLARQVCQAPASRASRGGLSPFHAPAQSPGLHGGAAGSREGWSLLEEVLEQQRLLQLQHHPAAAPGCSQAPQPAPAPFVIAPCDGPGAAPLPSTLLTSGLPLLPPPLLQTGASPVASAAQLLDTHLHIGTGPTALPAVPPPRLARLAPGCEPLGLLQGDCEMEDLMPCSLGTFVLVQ
T1 sequence (P12931 whole entry): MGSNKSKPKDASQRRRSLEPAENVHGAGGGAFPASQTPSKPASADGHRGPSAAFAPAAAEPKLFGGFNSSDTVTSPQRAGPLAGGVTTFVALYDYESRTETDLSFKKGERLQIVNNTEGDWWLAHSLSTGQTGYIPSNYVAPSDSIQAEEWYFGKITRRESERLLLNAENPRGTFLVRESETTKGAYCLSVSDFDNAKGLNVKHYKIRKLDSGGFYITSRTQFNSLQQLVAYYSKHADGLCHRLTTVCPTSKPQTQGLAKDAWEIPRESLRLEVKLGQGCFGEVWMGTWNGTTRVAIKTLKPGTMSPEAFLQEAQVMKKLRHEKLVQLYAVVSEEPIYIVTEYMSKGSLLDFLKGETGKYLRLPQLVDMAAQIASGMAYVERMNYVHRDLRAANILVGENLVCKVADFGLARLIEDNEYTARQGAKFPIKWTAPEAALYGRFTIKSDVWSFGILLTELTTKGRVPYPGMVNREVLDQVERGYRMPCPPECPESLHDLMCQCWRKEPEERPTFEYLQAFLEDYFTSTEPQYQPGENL
T2 sequence (Q9H0K1 whole entry): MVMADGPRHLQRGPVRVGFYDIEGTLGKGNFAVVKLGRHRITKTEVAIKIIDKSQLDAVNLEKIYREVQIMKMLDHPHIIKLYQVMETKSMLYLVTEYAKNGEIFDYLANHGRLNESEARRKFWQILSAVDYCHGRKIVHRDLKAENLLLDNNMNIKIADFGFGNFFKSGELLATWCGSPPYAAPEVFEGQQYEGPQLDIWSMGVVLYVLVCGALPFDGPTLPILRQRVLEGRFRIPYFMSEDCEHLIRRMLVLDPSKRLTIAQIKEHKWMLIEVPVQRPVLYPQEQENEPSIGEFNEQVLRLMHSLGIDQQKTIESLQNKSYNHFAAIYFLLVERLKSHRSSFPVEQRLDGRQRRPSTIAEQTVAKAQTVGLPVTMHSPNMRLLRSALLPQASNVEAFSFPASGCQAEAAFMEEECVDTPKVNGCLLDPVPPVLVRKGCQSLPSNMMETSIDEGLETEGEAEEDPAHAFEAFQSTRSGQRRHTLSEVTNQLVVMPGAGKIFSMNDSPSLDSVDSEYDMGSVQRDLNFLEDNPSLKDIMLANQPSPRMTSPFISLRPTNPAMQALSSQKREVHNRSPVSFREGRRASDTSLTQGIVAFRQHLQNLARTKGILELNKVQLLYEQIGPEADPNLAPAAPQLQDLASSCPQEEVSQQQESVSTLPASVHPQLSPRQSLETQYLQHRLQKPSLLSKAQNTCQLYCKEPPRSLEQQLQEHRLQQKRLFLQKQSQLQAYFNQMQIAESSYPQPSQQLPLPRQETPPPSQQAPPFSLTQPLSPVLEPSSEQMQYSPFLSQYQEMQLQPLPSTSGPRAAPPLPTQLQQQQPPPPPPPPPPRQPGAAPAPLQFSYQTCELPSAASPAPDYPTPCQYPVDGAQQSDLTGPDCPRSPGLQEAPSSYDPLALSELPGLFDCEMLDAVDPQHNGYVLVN

For `Cc1cccc(F)c1-c1cc(NC2CCNCC2)c2ncncc2c1` [Example 123, 6-(2-Fluoro-6-methyl-phenyl)-N-(4-piperidyl)quinazolin-8-amine], the Ki (usually the dissociation constant of the complex between target and ligand, obtained from inhibition or displacement) was above 1000 nM on Src; 1.86 nM on SIK2; 6.92 nM on SIK3; above 1000 nM on Abl; 216 nM on EPHA2; 2.72 nM on SIK1.

As for `Cc1cccc(F)c1-c1cc(NC[C@@H]2CCCCN2)c2cc(N)ncc2c1` [Example 14, 7-(2-fluoro-6-methyl-phenyl)-N5-[[(2S)-2-piperidyl]methyl]isoquinoline-3,5-diamine], the Ki at Src worked out at 67.8 nM; on SIK2, 0.0969 nM; on SIK3 it was 2.43 nM; on Abl, 8.01 nM; on EPHA2, 59.5 nM; on SIK1 it was 0.601 nM.

Turning to `CCN1CCC(Nc2cc(-c3c(C)cccc3F)cc3cncnc23)CC1` [Example 126, N-(1-Ethyl-4-piperidyl)-6-(2-fluoro-6-methyl-phenyl)quinazolin-8-amine], the Ki on Src was found to be 539 nM; on SIK2, 3.01 nM; at SIK3, 6.35 nM; at Abl it was 92.7 nM; at EPHA2, 302 nM; on SIK1 it was 2.95 nM.

As for `Cc1cccc(F)c1-c1cc(N2CC(N(C)C)C2)c2cc(N)ncc2c1` [Example 79, 5-[3-(dimethylamino)azetidin-1-yl]-7-(2-fluoro-6-methyl-phenyl)isoquinolin-3-amine], the inhibitory constant (Ki) stood at 106 nM on Src; 0.101 nM at SIK2; 2.24 nM at SIK3; 12.7 nM on Abl; 84.1 nM at EPHA2; 0.747 nM at SIK1.

In the case of `Cc1cccc(F)c1-c1cc(OC2CN(C)C2)c2cc(N)ncc2c1` [Example 102, 7-(2-fluoro-6-methyl-phenyl)-5-(1-methylazetidin-3-yl)oxy-isoquinolin-3-amine], the Ki was 274 nM on Src; 0.219 nM on SIK2; 5.27 nM at SIK3; 24.6 nM on Abl; above 1000 nM on EPHA2; 1.46 nM at SIK1.

On to `Cc1cccc(F)c1-c1cc(C(=O)NC2CCNC2)c2cc(N)ncc2c1` (stereo not drawn) [Example 53, 3-amino-7-(2-fluoro-6-methyl-phenyl)-N-pyrrolidin-3-yl-isoquinoline-5-carboxamide], for which the Ki at Src was above 100000 nM; on SIK2 it was 2770 nM; on SIK3, above 100000 nM; at Abl it was 5530 nM; on EPHA2 it was above 100000 nM; at SIK1, 12900 nM.

For `Cc1cccc(F)c1-c1cc(NC(=O)C2CCNC2)c2cc(N)ncc2c1` (stereo not drawn) [Example 136, N-[3-amino-7-(2-fluoro-6-methyl-phenyl)-5-isoquinolyl] pyrrolidine-3-carboxamide], the Ki on Src was 147 nM; on SIK2, 1.1 nM; at SIK3, 8.89 nM; at Abl, 27.6 nM; at EPHA2, 260 nM; at SIK1, 1.9 nM.

For `Cc1cccc(F)c1-c1cc(NC(=O)C2CCNCC2)c2cc(N)ncc2c1` [Example 44, N-[3-Amino-7-(2-fluoro-6-methyl-phenyl)-5-isoquinolyl]piperidine-4-carboxamide], the Ki is 291 nM on Src; 5.91 nM at SIK2; 36.9 nM at SIK3; 85.2 nM at Abl; 638 nM at EPHA2; 15.4 nM at SIK1.

Consider `Cc1cccc(F)c1-c1cc(NCC2CN(C)C2)c2cc(N)ncc2c1` [Example 72, 7-(2-fluoro-6-methyl-phenyl)-N5-[(1-methylazetidin-3-yl)methyl] isoquinoline-3,5-diamine], for which the inhibition constant (Ki) turned out to be 40.1 nM at Src; 0.117 nM at SIK2; 1.29 nM at SIK3; 1.83 nM on Abl; 153 nM on EPHA2; 0.627 nM at SIK1.

Consider `CCN1CCC(Nc2cc(-c3c(C)cccc3Cl)cc3cncnc23)CC1` [Example 131, 6-(2-chloro-6-methyl-phenyl)-N-(1-ethyl-4-piperidyl)quinazolin-8-amine], for which the Ki on Src worked out at 285 nM; at SIK2, 5.59 nM; at SIK3, 20.9 nM; on Abl, 237 nM; at EPHA2, 75.6 nM; on SIK1, 5.39 nM.

The values are drawn from patent US12637428B2, “Isoquinoline derivatives as SIK2 inhibitors” (Cancer Research Technology Limited, priority 2019, dated 2026).
